ChEMBL document CHEMBL3046161, “Synthesis of potential antitubercular and antimicrobial s-triazine-based scaffolds via Suzuki cross-coupling reaction” (2013)
Values after ≈ are worked out from the molar mass of the structure shown.

Tests used:
Type in all cases: functional
[1] = system: Pseudomonas aeruginosa; experiment: Antibacterial activity against Pseudomonas aeruginosa MTCC 741 assessed as growth inhibition at 3.12 to 50 ug/mL after 24 hr by agar disk diffusion method
[2] = system: Aspergillus fumigatus; experiment: Antifungal activity against Aspergillus fumigatus MTCC 343 assessed as growth inhibition at 3.12 to 50 ug/mL after 24 hr by agar disk diffusion method
[3] = system: Mycobacterium tuberculosis; experiment: Antimycobacterial activity against Mycobacterium tuberculosis H37Rv assessed as growth inhibition measured within 10 days by BACTEC MGIT method; conditions: 240 h
[4] = system: Klebsiella pneumoniae; experiment: Antibacterial activity against Klebsiella pneumoniae MTCC 109 assessed as growth inhibition at 3.12 to 50 ug/mL after 24 hr by agar disk diffusion method
[5] = system: Proteus vulgaris; experiment: Antibacterial activity against Proteus vulgaris MTCC 1771 assessed as growth inhibition after 24 hr by agar streak dilution method; conditions: MTCC 1771, 24 h
[6] = system: Shigella flexneri; experiment: Antibacterial activity against Shigella flexneri MTCC 1457 assessed as growth inhibition after 24 hr by agar streak dilution method; conditions: MTCC 1457, 24 h
[7] = system: Aspergillus niger; experiment: Antifungal activity against Aspergillus niger MTCC 282 assessed as growth inhibition after 48 hr by agar streak dilution method; conditions: MTCC 282, 48 h
[8] = system: Staphylococcus aureus; experiment: Antibacterial activity against Staphylococcus aureus MTCC 96 assessed as growth inhibition at 3.12 to 50 ug/mL after 24 hr by agar disk diffusion method
[9] = system: Aspergillus fumigatus; experiment: Antifungal activity against Aspergillus fumigatus MTCC 343 assessed as growth inhibition after 48 hr by agar streak dilution method; conditions: MTCC 343, 48 h
[10] = system: Mycobacterium tuberculosis; experiment: Antimycobacterial activity against Mycobacterium tuberculosis H37Rv assessed as growth inhibition after 12 to 28 days by Lowenstein and Jensen agar dilution method
[11] = system: Klebsiella pneumoniae; experiment: Antibacterial activity against Klebsiella pneumoniae MTCC 109 assessed as growth inhibition after 24 hr by agar streak dilution method; conditions: MTCC 109, 24 h
[12] = system: Escherichia coli; experiment: Antibacterial activity against Escherichia coli MTCC 739 assessed as growth inhibition at 3.12 to 50 ug/mL after 24 hr by agar disk diffusion method
[13] = system: Pseudomonas aeruginosa; experiment: Antibacterial activity against Pseudomonas aeruginosa MTCC 741 assessed as growth inhibition after 24 hr by agar streak dilution method; conditions: MTCC 741, 24 h
[14] = system: Candida albicans; experiment: Antifungal activity against Candida albicans MTCC 183 assessed as growth inhibition at 3.12 to 50 ug/mL after 24 hr by agar disk diffusion method
[15] = system: Staphylococcus aureus; experiment: Antibacterial activity against Staphylococcus aureus MTCC 96 assessed as growth inhibition after 24 hr by agar streak dilution method; conditions: MTCC 96, 24 h
[16] = system: Mycobacterium tuberculosis; experiment: Antimycobacterial activity against Mycobacterium tuberculosis H37Rv assessed as growth inhibition at MIC after 12 to 28 days by Lowenstein and Jensen agar dilution method
[17] = system: Bacillus cereus; experiment: Antibacterial activity against Bacillus cereus MTCC 430 assessed as growth inhibition after 24 hr by agar streak dilution method; conditions: MTCC 430, 24 h
[18] = system: Aspergillus clavatus; experiment: Antifungal activity against Aspergillus clavatus MTCC 1323 assessed as growth inhibition at 3.12 to 50 ug/mL after 24 hr by agar disk diffusion method
[19] = system: Candida albicans; experiment: Antifungal activity against Candida albicans MTCC 183 assessed as growth inhibition after 48 hr by agar streak dilution method; conditions: MTCC 183, 48 h
[20] = system: Salmonella typhi; experiment: Antibacterial activity against Salmonella enterica subsp. enterica serovar Typhi MTCC 733 assessed as growth inhibition after 24 hr by agar streak dilution method; conditions: MTCC 733, 24 h
[21] = system: Escherichia coli; experiment: Antibacterial activity against Escherichia coli MTCC 739 assessed as growth inhibition after 24 hr by agar streak dilution method; conditions: MTCC 739, 24 h
[22] = system: Shigella flexneri; experiment: Antibacterial activity against Shigella flexneri MTCC 1457 assessed as growth inhibition at 3.12 to 50 ug/mL after 24 hr by agar disk diffusion method
[23] = system: Bacillus cereus; experiment: Antibacterial activity against Bacillus cereus MTCC 430 assessed as growth inhibition at 3.12 to 50 ug/mL after 24 hr by agar disk diffusion method
[24] = system: Proteus vulgaris; experiment: Antibacterial activity against Proteus vulgaris MTCC 1771 assessed as growth inhibition at 3.12 to 50 ug/mL after 24 hr by agar disk diffusion method
[25] = system: Aspergillus niger; experiment: Antifungal activity against Aspergillus niger MTCC 282 assessed as growth inhibition at 3.12 to 50 ug/mL after 24 hr by agar disk diffusion method
[26] = system: Aspergillus clavatus; experiment: Antifungal activity against Aspergillus clavatus MTCC 1323 assessed as growth inhibition after 48 hr by agar streak dilution method; conditions: MTCC 1323, 48 h
[27] = system: Salmonella typhi; experiment: Antibacterial activity against Salmonella enterica subsp. enterica serovar Typhi MTCC 733 assessed as growth inhibition at 3.12 to 50 ug/mL after 24 hr by agar disk diffusion method

Row | Structure (SMILES) | inhibition zone (IZ) [1] | inhibition zone (IZ) [2] | MIC [3] | inhibition zone (IZ) [4] | MIC [5] | MIC [6] | MIC [7] | inhibition zone (IZ) [8] | MIC [9] | MIC [10] | MIC [11] | inhibition zone (IZ) [12] | MIC [13] | inhibition zone (IZ) [14] | MIC [15] | growth inhibition (GI) [16] | MIC [17] | inhibition zone (IZ) [18] | MIC [19] | MIC [20] | further results
1 | CCOc1ccc(NC(=O)CNc2ccc(-c3nc(N4CC(C)CC(C)C4)nc(N4CC(C)CC(C)C4)n3)cc2)cc1 (stereo not drawn) | 16 mm | <10 mm | > 6.25 µg/mL | <10 mm | 12.5 µg/mL (≈ 21.9 µM) | 25 µg/mL (≈ 43.7 µM) | 25 µg/mL (≈ 43.7 µM) | 19 mm | > 50 µg/mL | 25 µg/mL (≈ 43.7 µM) | 50 µg/mL (≈ 87.4 µM) | 24 mm | 50 µg/mL (≈ 87.4 µM) | 24 mm | 25 µg/mL (≈ 43.7 µM) | 98% | 50 µg/mL (≈ 87.4 µM) | 14 mm | 25 µg/mL (≈ 43.7 µM) | 25 µg/mL (≈ 43.7 µM) | MIC [21]: 12.5 µg/mL (≈ 21.9 µM); inhibition zone (IZ) [22]: 22 mm; inhibition zone (IZ) [23]: 20 mm; inhibition zone (IZ) [24]: 25 mm; inhibition zone (IZ) [25]: 19 mm; MIC [26]: 50 µg/mL (≈ 87.4 µM); inhibition zone (IZ) [27]: 21 mm
2 | CC(=O)Nc1ccc(NC(=O)CNc2ccc(-c3nc(N4CC(C)CC(C)C4)nc(N4CC(C)CC(C)C4)n3)cc2)cc1 (stereo not drawn) | 19 mm | 12 mm | > 6.25 µg/mL | <10 mm | 6.25 µg/mL (≈ 10.7 µM) | 50 µg/mL (≈ 85.5 µM) | 12.5 µg/mL (≈ 21.4 µM) | <10 mm | 50 µg/mL (≈ 85.5 µM) | 62.5 µg/mL (≈ 107 µM) | 50 µg/mL (≈ 85.5 µM) | 20 mm | 50 µg/mL (≈ 85.5 µM) | 17 mm | 50 µg/mL (≈ 85.5 µM) | 95% | 50 µg/mL (≈ 85.5 µM) | 19 mm | 50 µg/mL (≈ 85.5 µM) | 50 µg/mL (≈ 85.5 µM) | MIC [21]: 50 µg/mL (≈ 85.5 µM); inhibition zone (IZ) [22]: 16 mm; inhibition zone (IZ) [23]: 12 mm; inhibition zone (IZ) [24]: 27 mm; inhibition zone (IZ) [25]: 22 mm; MIC [26]: 50 µg/mL (≈ 85.5 µM); inhibition zone (IZ) [27]: <10 mm
3 | CC1CC(C)CN(c2nc(-c3ccc(NCC(=O)Nc4nc5ccccc5s4)cc3)nc(N3CC(C)CC(C)C3)n2)C1 (stereo not drawn) | 16 mm | <10 mm | > 6.25 µg/mL | <10 mm | 50 µg/mL (≈ 85.5 µM) | 50 µg/mL (≈ 85.5 µM) | 50 µg/mL (≈ 85.5 µM) | 16 mm | > 50 µg/mL | 500 µg/mL (≈ 855 µM) | 50 µg/mL (≈ 85.5 µM) | 14 mm | 50 µg/mL (≈ 85.5 µM) | <10 mm | 50 µg/mL (≈ 85.5 µM) | 94% | 50 µg/mL (≈ 85.5 µM) | <10 mm | > 50 µg/mL | 50 µg/mL (≈ 85.5 µM) | MIC [21]: 50 µg/mL (≈ 85.5 µM); inhibition zone (IZ) [22]: <10 mm; inhibition zone (IZ) [23]: 14 mm; inhibition zone (IZ) [24]: 18 mm; inhibition zone (IZ) [25]: <10 mm; MIC [26]: > 50 µg/mL; inhibition zone (IZ) [27]: 12 mm
4 | CC1CC(C)CN(c2nc(-c3ccc(NCC(=O)Nc4ccc(F)cc4)cc3)nc(N3CC(C)CC(C)C3)n2)C1 (stereo not drawn) | 27 mm | 22 mm | > 6.25 µg/mL | 21 mm | 50 µg/mL (≈ 91.6 µM) | 12.5 µg/mL (≈ 22.9 µM) | 50 µg/mL (≈ 91.6 µM) | 20 mm | 50 µg/mL (≈ 91.6 µM) | 25 µg/mL (≈ 45.8 µM) | 50 µg/mL (≈ 91.6 µM) | 20 mm | 12.5 µg/mL (≈ 22.9 µM) | 15 mm | 12.5 µg/mL (≈ 22.9 µM) | 97% | 25 µg/mL (≈ 45.8 µM) | 13 mm | 50 µg/mL (≈ 91.6 µM) | 25 µg/mL (≈ 45.8 µM) | MIC [21]: 25 µg/mL (≈ 45.8 µM); inhibition zone (IZ) [22]: 25 mm; inhibition zone (IZ) [23]: 22 mm; inhibition zone (IZ) [24]: 16 mm; inhibition zone (IZ) [25]: 18 mm; MIC [26]: 50 µg/mL (≈ 91.6 µM); inhibition zone (IZ) [27]: 21 mm
